Legend:
Assay type in all cases: biochemical
trypsin = assay: Enzyme selectivity: trypsin (chromogenic substrate S-2222); details: human enzyme, chromogenic substrate S-2222, 37° C.
Procedure: (§1) Determination of Enzyme Selectivity
(§2) Selected compounds were further screened for inhibitory activity against other trypsin-like serine proteases using the appropriate enzyme and chromogenic substrate (Chromogenix AB). The activity against the following human enzymes was tested (substrate in brackets):—plasma kallikrein (S-2302), thrombin (S-2238), plasmin (S-2390) and trypsin (S-2222). The enzyme was incubated at 37° C. with the chromogenic substrate. Residual enzyme activity (initial rate of reaction) was determined by measuring the change in optical absorbance at 405 nm.

plasma kallikrein = plasma kallikrein (Homo sapiens, UniProt P03952); assay: Enzyme selectivity: plasma kallikrein (chromogenic substrate S-2302); details: chromogenic substrate S-2302, 37° C.
Chain of plasma kallikrein (P03952 20-638): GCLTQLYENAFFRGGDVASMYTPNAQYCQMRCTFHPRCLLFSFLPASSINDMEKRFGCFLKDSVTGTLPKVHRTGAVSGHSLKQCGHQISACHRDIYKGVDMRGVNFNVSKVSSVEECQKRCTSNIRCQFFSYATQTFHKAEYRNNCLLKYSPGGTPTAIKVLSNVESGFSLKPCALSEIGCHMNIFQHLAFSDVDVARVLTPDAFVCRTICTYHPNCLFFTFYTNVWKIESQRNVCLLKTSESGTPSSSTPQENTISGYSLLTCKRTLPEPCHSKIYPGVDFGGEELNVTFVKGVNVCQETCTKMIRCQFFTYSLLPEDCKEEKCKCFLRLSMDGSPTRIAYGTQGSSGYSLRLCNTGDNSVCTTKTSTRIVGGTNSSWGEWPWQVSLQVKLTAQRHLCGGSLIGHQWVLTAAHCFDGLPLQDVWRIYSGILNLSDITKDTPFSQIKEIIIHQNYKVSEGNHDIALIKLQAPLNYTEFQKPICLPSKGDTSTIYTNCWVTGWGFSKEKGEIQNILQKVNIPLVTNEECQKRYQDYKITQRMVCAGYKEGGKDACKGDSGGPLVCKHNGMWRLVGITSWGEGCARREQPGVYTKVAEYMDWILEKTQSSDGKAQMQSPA
Procedure: as §1, §2

thrombin = thrombin (Homo sapiens, UniProt P00734); assay: Enzyme selectivity: thrombin (chromogenic substrate S-2238); details: chromogenic substrate S-2238, 37° C.
Procedure: as §1, §2

Human KLK1 = target: T1, Human KLK1 (Homo sapiens, UniProt P06870); assay: Determination of the IC50 for KLK1 (fluorogenic substrate H-DVal-Leu-Arg-AFC); details: 37° C.
T1 construct: purchased Callbiochem (Calbiochem)
T1 sequence (P06870 25-262): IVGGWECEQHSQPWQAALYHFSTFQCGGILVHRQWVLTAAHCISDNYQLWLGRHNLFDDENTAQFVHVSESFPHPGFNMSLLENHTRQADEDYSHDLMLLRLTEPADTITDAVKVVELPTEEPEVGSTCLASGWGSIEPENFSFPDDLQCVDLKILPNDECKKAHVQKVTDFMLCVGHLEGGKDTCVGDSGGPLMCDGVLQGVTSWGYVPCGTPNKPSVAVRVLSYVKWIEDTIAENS
Outline: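 Human KLK1 incubated at 37 °C with fluorogenic substrate H-DVal-Leu-Arg-AFC and a range of test compound concentrations. Residual activity was taken as initial reaction rate from absorbance change at 410 nm, and the IC50 derived from it.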

plasmin = plasmin (Homo sapiens, UniProt P00747); assay: Enzyme selectivity: plasmin (chromogenic substrate S-2390); details: chromogenic substrate S-2390, 37° C.
Chain of plasmin (P00747 581-810 limits assumed): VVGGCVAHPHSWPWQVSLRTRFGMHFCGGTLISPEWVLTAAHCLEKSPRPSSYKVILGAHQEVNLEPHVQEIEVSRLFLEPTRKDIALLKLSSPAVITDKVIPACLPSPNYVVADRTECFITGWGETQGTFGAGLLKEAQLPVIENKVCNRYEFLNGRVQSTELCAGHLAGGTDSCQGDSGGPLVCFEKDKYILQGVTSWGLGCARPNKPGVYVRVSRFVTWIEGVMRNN
Chain of plasmin (P00747 97-580 partner limits assumed): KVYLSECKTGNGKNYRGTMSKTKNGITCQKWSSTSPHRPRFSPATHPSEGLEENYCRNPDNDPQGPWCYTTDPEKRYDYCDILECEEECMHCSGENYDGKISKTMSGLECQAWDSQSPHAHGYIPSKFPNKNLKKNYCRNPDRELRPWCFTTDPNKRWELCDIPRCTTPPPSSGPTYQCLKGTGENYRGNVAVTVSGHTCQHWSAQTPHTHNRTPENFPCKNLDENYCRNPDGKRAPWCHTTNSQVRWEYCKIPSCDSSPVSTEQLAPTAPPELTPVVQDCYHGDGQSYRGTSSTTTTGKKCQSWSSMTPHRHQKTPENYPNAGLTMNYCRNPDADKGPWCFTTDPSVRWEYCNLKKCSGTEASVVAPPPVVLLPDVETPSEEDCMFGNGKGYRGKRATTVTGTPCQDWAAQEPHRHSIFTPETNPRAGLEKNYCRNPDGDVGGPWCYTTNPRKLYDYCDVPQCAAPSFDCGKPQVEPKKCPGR
Procedure: as §1, §2

| IC50 (trypsin) [µM] | IC50 (plasma kallikrein) [µM] | IC50 (thrombin) [µM] | IC50 (Human KLK1) [µM] | IC50 (plasmin) [µM] | SMILES |
| --- | --- | --- | --- | --- | --- |
| > 10 | > 10 | > 10 | 0.0031 | > 10 | Cc1cc(C)c(C(=O)N[C@@H](Cc2cccc3ccccc23)C(=O)NCc2ccc(N)nc2)[nH]1 [Example 231, 3,5-Dimethyl-1H-pyrrole-2-carboxylic acid {(S)-1-[(6-amino-pyridin-3-ylmethyl)-carbamoyl]-2-naphthalen-1-yl-ethyl}-amide] |
| > 10 | > 10 | > 10 | 0.001 | > 10 | CCC(C)[C@@H](N)C(=O)N[C@@H](CC1CCCC2CCCCC21)C(=O)NCc1ccc(N)nc1 (stereo partly drawn) [Example 2, (R)-2-Amino-3-methyl-pentanoic acid [(S)-1-[(6-amino-pyridin-3-ylmethyl)-carbamoyl]-2-(decahydro-naphthalen-1-yl)-ethyl]-amide] |
| > 10 | > 10 | > 10 | – | > 10 | Nc1ccc(CNC(=O)[C@H](Cc2ccc(Cl)c(Cl)c2)NC(=O)[C@H]2CCCN2)cn1 [Example 4, (R)-Pyrrolidine-2-carboxylic acid [(S)-1-[(6-amino-pyridin-3-ylmethyl)-carbamoyl]-2-(3,4-dichloro-phenyl)-ethyl]-amide] |
| > 10 | > 10 | > 10 | 0.0034 | > 10 | Nc1ccc(CNC(=O)[C@H](Cc2cccc(C(F)(F)F)c2)NC(=O)c2ccc[nH]2)cn1 [Example 229, 1H-Pyrrole-2-carboxylic acid [(S)-1-[(6-amino-pyridin-3-ylmethyl)-carbamoyl]-2-(3-trifluoromethyl-phenyl)-ethyl]-amide] |
| > 10 | > 10 | > 10 | 0.0053 | > 10 | Nc1ccc(CNC(=O)[C@H](CC2CCCC3CCCCC32)NC(=O)c2ccc[nH]2)cn1 (stereo partly drawn) [Example 227, 1H-Pyrrole-2-carboxylic acid [(S)-1-[(6-amino-pyridin-3-ylmethyl)-carbamoyl]-2-(decahydro-naphthalen-1-yl)-ethyl]-amide] |
| > 10 | > 10 | > 10 | 0.0021 | > 10 | CN1CCC[C@@H]1C(=O)N[C@@H](Cc1cccc(C(F)(F)F)c1)C(=O)NCc1ccc(N)nc1 [Example 91, (R)-1-Methyl-pyrrolidine-2-carboxylic acid [(S)-1-[(6-amino-pyridin-3-ylmethyl)-carbamoyl]-2-(3-trifluoromethyl-phenyl)-ethyl]-amide] |
| > 10 | > 10 | > 10 | 0.00022 | > 10 | CCC(C)[C@@H](NC)C(=O)N[C@@H](Cc1ccc(Cl)c(Cl)c1)C(=O)NCc1ccc(N)nc1 (stereo partly drawn) [Example 3, (R)-3-Methyl-2-methylamino-pentanoic acid [(S)-1-[(6-amino-pyridin-3-ylmethyl)-carbamoyl]-2-(3,4-dichloro-phenyl)-ethyl]-amide] |
| > 10 | > 10 | > 10 | 0.0049 | > 10 | CCC(C)[C@H](N)C(=O)N[C@@H](C(=O)NCc1ccc(N)nc1)C(C1CCCCC1)C1CCCCC1 (stereo partly drawn) [Example 11, (S)-2-Amino-3-methyl-pentanoic acid [(R)-1-[(6-amino-pyridin-3-ylmethyl)-carbamoyl]-2,2-dicyclohexyl-ethyl]-amide] |
| > 10 | > 10 | > 10 | 0.0025 | > 10 | CCC(C)[C@@H](N)C(=O)N[C@@H](Cc1cccc(C)c1)C(=O)NCc1ccc(N)nc1 (stereo partly drawn) [Example 27, (R)-2-Amino-3-methyl-pentanoic acid {(S)-1-[(6-amino-pyridin-3-ylmethyl)-carbamoyl]-2-m-tolyl-ethyl}-amide] |
| > 10 | > 10 | > 10 | 0.0024 | > 10 | CN[C@H](C)C(=O)N[C@@H](Cc1ccc(Cl)c(Cl)c1)C(=O)NCc1ccc(N)nc1 [Example 62, (R)—N-[(S)-1-[(6-Amino-pyridin-3-ylmethyl)-carbamoyl]-2-(3,4-dichloro-phenyl)-ethyl]-2-methylamino-propionamide] |
| > 10 | > 10 | > 10 | 0.0205 | > 10 | CCC(C)[C@@H](N)C(=O)N[C@@H](Cc1ccccc1)C(=O)NCc1ccc(N)nc1 (stereo partly drawn) [Example 26, (R)-2-Amino-3-methyl-pentanoic acid {(S)-1-[(6-amino-pyridin-3-ylmethyl)-carbamoyl]-2-phenyl-ethyl}-amide] |
| > 10 | > 10 | > 10 | 0.0027 | > 10 | CCN(CC)[C@@H](C)C(=O)N[C@@H](CC1CCCCC1)C(=O)NCc1ccc(N)nc1 [Example 390, (S)—N-{(S)-1-[(6-Amino-pyridin-3-ylmethyl)-carbamoyl]-2-cyclohexyl-ethyl}-2-diethylamino-propionamide] |
| > 10 | > 10 | > 10 | 0.00071 | > 10 | CN[C@H](Cc1ccccc1)C(=O)N[C@@H](Cc1ccc(Cl)c(Cl)c1)C(=O)NCc1ccc(N)nc1 [Example 60, (R)—N-[(S)-1-[(6-Amino-pyridin-3-ylmethyl)-carbamoyl]-2-(3,4-dichloro-phenyl)-ethyl]-2-methylamino-3-phenyl-propionamide] |
| – | – | – | 0.0018 | – | Cc1cccc(C[C@H](NC(=O)[C@H]2CCCN2C(C)C)C(=O)NCc2ccc(N)nc2)c1 [Example 122, (R)-1-Isopropyl-pyrrolidine-2-carboxylic acid {(S)-1-[(6-amino-pyridin-3-ylmethyl)-carbamoyl]-2-m-tolyl-ethyl}-amide] |
| – | – | – | 0.0077 | – | Cc1cccc(C[C@H](NC(=O)c2[nH]ccc2C)C(=O)NCc2ccc(N)nc2)c1 [Example 268, 3-Methyl-1H-pyrrole-2-carboxylic acid {(S)-1-[(6-amino-pyridin-3-ylmethyl)-carbamoyl]-2-m-tolyl-ethyl}-amide] |
| – | – | – | 0.0127 | – | CC(C(=O)N[C@@H](Cc1cccc(Cl)c1)C(=O)NCc1ccc(N)nc1)N1CCCCC1 (stereo partly drawn) [Example 411, N-[(S)-1-[(6-Amino-pyridin-3-ylmethyl)-carbamoyl]-2-(3-chloro-phenyl)-ethyl]-2-piperidin-1-yl-propionamide] |
| – | – | – | 0.148 | – | COc1ccc2[nH]c(C(=O)N[C@@H](Cc3cccc4ccccc34)C(=O)NCc3ccc(N)nc3C)cc2c1 [Example 304, 5-Methoxy-1H-indole-2-carboxylic acid {(S)-1-[(6-amino-2-methyl-pyridin-3-ylmethyl)-carbamoyl]-2-naphthalen-1-yl-ethyl}-amide] |
| – | – | – | 0.0013 | – | Cc1nc(N)ccc1CNC(=O)[C@H](Cc1ccc(Cl)c(Cl)c1)NC(=O)[C@H]1CCCCN1 [Example 201, (R)-Piperidine-2-carboxylic acid [(S)-1-[(6-amino-2-methyl-pyridin-3-ylmethyl)-carbamoyl]-2-(3,4-dichloro-phenyl)-ethyl]-amide] |
| – | – | – | 0.626 | – | Cn1ccnc1C(=O)N[C@@H](Cc1ccc(F)cc1)C(=O)NCc1ccc(N)nc1 [Example 290, 1-Methyl-1H-imidazole-2-carboxylic acid [(S)-1-[(6-amino-pyridin-3-ylmethyl)-carbamoyl]-2-(4-fluoro-phenyl)-ethyl]-amide] |
| – | – | – | 0.0029 | – | CCC(C)[C@@H](NC)C(=O)N[C@@H](Cc1ccc(F)c(F)c1)C(=O)NCc1ccc(N)nc1 (stereo partly drawn) [Example 43, (R)-3-Methyl-2-methylamino-pentanoic acid [(S)-1-[(6-amino-pyridin-3-ylmethyl)-carbamoyl]-2-(3,4-difluoro-phenyl)-ethyl]-amide] |
| – | – | – | 0.0472 | – | CC1CCCC(C)N1CC(=O)N[C@@H](CC1CCCCC1)C(=O)NCc1ccc(N)nc1 (stereo partly drawn) [Example 392, (S)—N-(6-Amino-pyridin-3-ylmethyl)-3-cyclohexyl-2-[2-(2,6-dimethyl-piperidin-1-yl)-acetylamino]-propionamide] |
| – | – | – | 0.0057 | – | CN(CC(=O)N[C@@H](Cc1ccc(Cl)c(Cl)c1)C(=O)NCc1ccc(N)nc1)Cc1ccccc1 [Example 152, (S)—N-(6-Amino-pyridin-3-ylmethyl)-2-[2-(benzyl-methyl-amino)-acetylamino]-3-(3,4-dichloro-phenyl)-propionamide] |
| – | – | – | 0.0181 | – | CCC(C)[C@@H](N)C(=O)N[C@@H](Cc1cccc(C#N)c1)C(=O)NCc1ccc(N)nc1 (stereo partly drawn) [Example 31, (R)-2-Amino-3-methyl-pentanoic acid [(S)-1-[(6-amino-pyridin-3-ylmethyl)-carbamoyl]-2-(3-cyano-phenyl)-ethyl]-amide] |
| – | – | – | 0.0072 | – | Nc1ccc(CNC(=O)[C@H](Cc2ccc(F)c(F)c2)NC(=O)[C@H]2CCCN2)cn1 [Example 72, (R)-Pyrrolidine-2-carboxylic acid [(S)-1-[(6-amino-pyridin-3-ylmethyl)-carbamoyl]-2-(3,4-difluoro-phenyl)-ethyl]-amide] |
| – | – | – | 0.0009 | – | CC(C)N1CCC[C@@H]1C(=O)N[C@@H](Cc1ccc(Cl)cc1Cl)C(=O)NCc1ccc(N)nc1 [Example 127, (R)-1-Isopropyl-pyrrolidine-2-carboxylic acid [(S)-1-[(6-amino-pyridin-3-ylmethyl)-carbamoyl]-2-(2,4-dichloro-phenyl)-ethyl]-amide] |
